Results: PMC9500072, “Topical application of an irreversible small molecule inhibitor of lysyl oxidases ameliorates skin scarring and fibrosis” (Nature Communications, 2022)
Where two headings read alike, the source gives them in different places.

Assays:
[1] = biological target: T1, Human Recombinant SSAO (Homo sapiens, UniProt Q16853); assay: Amine oxidase inhibition profile, SSAO; assay type: biochemical
T1 sequence (Q16853 1-763): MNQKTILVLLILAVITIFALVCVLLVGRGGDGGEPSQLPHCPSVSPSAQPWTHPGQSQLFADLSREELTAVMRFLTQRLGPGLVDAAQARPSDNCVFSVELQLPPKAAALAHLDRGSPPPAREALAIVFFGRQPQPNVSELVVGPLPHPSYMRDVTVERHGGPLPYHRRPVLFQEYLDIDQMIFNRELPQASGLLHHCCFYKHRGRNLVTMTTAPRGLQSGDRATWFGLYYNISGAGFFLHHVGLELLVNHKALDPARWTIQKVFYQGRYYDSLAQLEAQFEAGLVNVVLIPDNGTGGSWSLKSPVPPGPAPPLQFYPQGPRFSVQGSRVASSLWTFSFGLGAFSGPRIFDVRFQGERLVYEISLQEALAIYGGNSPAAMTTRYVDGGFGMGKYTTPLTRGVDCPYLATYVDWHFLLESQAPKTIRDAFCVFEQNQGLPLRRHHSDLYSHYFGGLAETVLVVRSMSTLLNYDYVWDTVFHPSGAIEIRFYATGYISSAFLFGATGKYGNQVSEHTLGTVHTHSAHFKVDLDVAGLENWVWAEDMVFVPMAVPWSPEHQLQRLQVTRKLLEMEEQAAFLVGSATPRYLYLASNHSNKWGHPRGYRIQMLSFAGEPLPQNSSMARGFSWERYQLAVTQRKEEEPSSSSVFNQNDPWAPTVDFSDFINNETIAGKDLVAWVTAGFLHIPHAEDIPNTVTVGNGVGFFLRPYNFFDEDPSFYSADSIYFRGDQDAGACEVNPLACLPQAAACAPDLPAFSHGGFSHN
Text: (§1) Supplem entary Materi als:
(§2) Supplementary Table S1: Amine oxidase inhibition profile of PXS -4787, PXS-6302 and
(§3) Supplementary Table S2: Perm eability profile of PXS -6302.

[2] = biological target: T2, Human Fibroblast LOX (Homo sapiens, UniProt P28300); assay: Amine oxidase inhibition profile, human fibroblast LOX; assay type: biochemical
T2 construct: Fibroblast LOX; endogenous in cells; host or cells: human fibroblasts
T2 sequence (P28300 169-417): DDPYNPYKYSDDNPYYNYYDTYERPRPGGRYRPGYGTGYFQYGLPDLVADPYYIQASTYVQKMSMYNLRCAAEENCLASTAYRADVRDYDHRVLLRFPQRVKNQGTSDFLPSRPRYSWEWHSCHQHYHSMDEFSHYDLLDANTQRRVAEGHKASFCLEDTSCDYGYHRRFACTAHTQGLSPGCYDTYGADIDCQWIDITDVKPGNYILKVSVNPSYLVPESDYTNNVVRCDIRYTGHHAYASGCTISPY
Experimental: The measurement of the enzymatic activity of all lysyl oxidase family members was based on the detection of hydrogen peroxide with an Amplex-Red oxidation assay, as previously described; miniaturized in 384 well formats, with the appropriate combination of substrate and assay buffer for each individual enzyme. After a 30 min pre-incubation of the enzyme at 37 °C with the test compound (or with different incubation times for the time-dependency assay), one volume of reaction mixture containing 120 μM Amplex Red (AR) (Life Technologies), 1.5 U/mL horseradish peroxidase (HRP) (Sigma-Aldrich) and the specific substrate was added to each sample. The relative fluorescence units (RFU) were then measured every 2.5 min for 30 min at 37 °C, excitation 565 nm and emission 590, on a BMG Clariostar Microplate Reader. All the substrates were used at concentrations corresponding to their Km towards the corresponding enzyme, or with a range of different concentrations for the substrate competition experiments.
Lysyl oxidases assay buffer contained 1.2 M urea, 50 mM sodium borate buffer, pH 8.2 and 100 µM β-aminoproprionitrile (BAPN, Sigma-Aldrich) was used for low control.
as §1, §2, §3

[3] = biological target: Dopamine D1 (Homo sapiens, UniProt P21728); assay: Eurofins panel 219500; assay type: binding
[4] = system: Sodium Channel, Site 2; assay: Eurofins panel 279510; assay type: binding, rat
[5] = system: Calcium Channel L-Type, Dihydropyridine; assay: Eurofins panel 214600; assay type: binding, rat
[6] = read-out: Recombinant SSAO IC50
[7] = read-out: Human Fibroblast LOX IC50

Dopamine D1, sequence (P21728 whole entry): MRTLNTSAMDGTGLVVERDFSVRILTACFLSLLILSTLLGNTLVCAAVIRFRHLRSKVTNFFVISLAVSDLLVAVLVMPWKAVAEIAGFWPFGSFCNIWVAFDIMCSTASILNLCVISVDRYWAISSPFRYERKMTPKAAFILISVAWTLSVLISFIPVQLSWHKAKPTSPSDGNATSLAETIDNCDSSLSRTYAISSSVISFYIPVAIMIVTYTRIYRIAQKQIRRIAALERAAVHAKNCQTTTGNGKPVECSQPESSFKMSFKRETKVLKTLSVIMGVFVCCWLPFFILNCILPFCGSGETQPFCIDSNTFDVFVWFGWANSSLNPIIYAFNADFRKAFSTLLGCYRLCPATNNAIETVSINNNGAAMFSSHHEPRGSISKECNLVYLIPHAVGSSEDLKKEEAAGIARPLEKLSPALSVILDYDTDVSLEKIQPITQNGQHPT

SMILES | Recombinant SSAO pIC50 [1] | IC50 [1, 6] | Human Fibroblast LOX pIC50±SD [2] | IC50 [2, 7] | inhibition at 10 µM ([3]; 10 µM) | % Inh. ([4]; 10 µM) | % Inh. ([5]; 10 µM) | IC50 [1] | IC50 ([2]; read-out: Human Fibroblast LOX pIC50±SD (converted)) | inhibition at 30 µM ([3]; read-out: % Inh.) | % Inh. ([4]; 30 µM) | % Inh. ([5]; 30 µM)
N#CCCN [BAPN, β-aminoproprionitrile, reference compound] | < 4 | > 100 µM | 5.5 ± 0.1 | 3.04 µM |  |  |  |  |  |  |  | 
NC/C=C(\F)CS(=O)(=O)c1ccccc1 [PXS-4787] |  | > 100 µM |  | 5.19 µM | 3% | 13% | -4% |  |  |  |  | 
NC/C=C(\F)C(F)(F)S(=O)(=O)c1ccccc1 [PXS-6302] |  |  |  | 4.51 µM |  |  |  | > 30 µM | 3.98 µM | 0% | 66% | 2%
